These are literature values, as cited in patent US20210259278A1, “CHEWING GUM CONTAINING VITAMIN C” (priority 2018, published 2021).

The series relates to nausea in humans.

On to `O=C1O[C@H]([C@@H](O)CO)C(O)=C1O` [vitamin C, L-(+)-ascorbic acid], for which the treatment of nausea entry (administration of vitamin C, for example in connection with seasickness) is recorded as “found to be effective”. For the setting “vitamin C alone”, the “prevention of the occurrence of nausea in all test subjects” value is given as “could not reliably prevent the occurrence of nausea in all test subjects”.
